# Reference: EP1688137A1, “SPM 927 for add-on therapy of schizophrenia” (SCHWARZ PHARMA AG, priority 2005, dated 2006)
# System: C57BL/6J mice
# Assay: prepulse inhibition (PPI) of the acoustic startle reflex, animal model for schizophrenia
# Type: in vivo
# Settings: 30 min prior to testing, n=12
# Procedure: Some anti-epileptic drugs have proven pre-clinical and/or clinical efficacy as add-on therapy for schizophrenia. SPM 927 was tested in a simple animal model with predictive validity for schizophrenia (i.e. prepulse inhibition (PPI) of the acoustic startle reflex). SPM 927 was tested alone and in combination with the atypical antipsychotic drug clozapine.
# The acoustic startle is an unconditioned reflex response to an external auditory stimulation. PPI refers to the reduction in the startle response caused by the presentation of a low-intensity auditory stimulus prior to the startle stimulus. The PPI paradigm is the choice for the study of schizophrenia and antipsychotic action due to the similarities between the results from human and rodent studies. Antipsychotic drugs, such as clozapine, result in a dose-dependent increase in PPI in mice. Thus, an increase of PPI in normal mice may be indicative of antipsychotic efficacy.
# C57BL/6J mice obtained from the Jackson Laboratory, Bar Harbor, Maine were received at the age of 6 weeks and were assigned unique identification numbers (tail marked). Animals were housed 4 per cage in polycarbonate cages with filter tops and acclimated for 7 days. All animals were examined, handled, and weighed prior to initiation of the study to assure adequate health and suitability and to minimize non-specific stress associated with manipulation.
# During the course of the study, 12/12 light/dark cycles and a room temperature of 20 to 23°C were maintained with a relative humidity maintained around 50%. Chow and water were provided ad libitum for the duration of the study. Each mouse was randomly assigned across the treatment groups and balanced by cage numbers. The test was performed during the animal's light cycle phase. Twelve animals were used in each treatment group.
# SPM 927 was dissolved in Saline (0.9% NaCl in sterile H2O). Clozapine was dissolved in 1 % Tween 80 in sterile H2O at a final pH of 6.0. All compounds were administered intraperitoneal (ip) (volume injection: 10 ml/kg). SPM 927 was administered at doses of 1, 10 and 30 mg/kg and Clozapine at a dose of 3 mg/kg. Doses are expressed as mg of salt. Control mice were administered saline (vehicle 1, VEH 1) or 1% Tween 80 (vehicle 2, VEH 2) at a pH of 6.0. The drug treatments were balanced across days and the animals only used once. All tests were conducted blind. All compounds were administered 30 mins prior to testing.
# Animals were placed in the PPI chambers (Med Associates) for a 5 min session of white noise (70 dB) habituation. After the acclimation period the test session was automatically started. The session started with an habituation block of 6 presentations of the startle stimulus alone, followed by 10 PPI blocks of 6 different types of trials. Trial types are: null (no stimuli), startle (120 dB), startle plus prepulse (4, 8 and 12 dB over background noise i.e. 74, 78 or 82 dB) and prepulse alone (82 dB). Trial types were presented at random within each block. Each trial started with a 50 ms null period during which baseline movements are recorded. There was a subsequent 20 ms period during which prepulse stimuli were presented and responses to the prepulse measured. After further 100 ms the startle stimuli were presented for 40 ms and responses recorded for 100 ms from startle onset. Responses were sampled every ms. The inter-trial interval was variable with an average of 15 s (range from 10 to 20 s). In startle alone trials the basic auditory startle is measured and in prepulse plus startle trials the amount of inhibition of the normal startle is determined and expressed as a percentage of the basic startle response (from startle alone trials), excluding the startle response of the first habituation block. Eight animals were tested at one time.
# Twelve animals were tested in each group. […]
SMILES,Mean PPI (SPM 927 3 mg/kg ip / VEH 2 (alone)),Mean PPI (SPM 927 3 mg/kg ip in combination with clozapine 3 mg/kg ip),Mean PPI (SPM 927 10 mg/kg ip / VEH 2 (alone)),Mean PPI (SPM 927 10 mg/kg ip in combination with clozapine 3 mg/kg ip),Mean PPI (SPM 927 30 mg/kg ip / VEH 2 (alone)),Mean PPI (SPM 927 30 mg/kg ip in combination with clozapine 3 mg/kg ip),"Mean PPI (VEH 1 / clozapine 3 mg/kg ip, PPI expressed as percentage of basic startle response)"
"COC[C@@H](NC(C)=O)C(=O)NCc1ccccc1 [SPM 927, (R)-2-acetamide-N-benzyl-3-methoxypropionamide]",29±3,43±2,34±3,45±2,27±2,57±5,
"CN1CCN(C2=Nc3cc(Cl)ccc3Nc3ccccc32)CC1 [CLOZ, clozapine, reference compound]",,,,,,,45±2
